Test results published in patent US9493448B2, “Cycloalkane derivatives” (Daiichi Sankyo Company, Limited, priority 2012, dated 2016).

Assays:
hNav 1.7 = hNav 1.7 (Homo sapiens (Human), UniProt Q15858); test: Electrophysiological evaluation, automated patch clamp IonWorks Quattro (Population Patch Clamp mode); format: cell-based; settings: HEK293A cells stably expressing hNav 1.7/β1/β2; response to second depolarization pulse, pre-pulse potential set to V1/2; read-out: hNav1.7 IC50
[1] = system: mice and rats affected by thermal hyperalgesia; test: Thermal hyperalgesia assay; format: in vivo; settings: oral administration, constant dose, against the vehicle treatment group; latency to escape behaviors after thermal stimulation of hind paw;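 also: measurement times set by the study director and not disclosed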

Chain of hNav 1.7 (Q15858 whole entry): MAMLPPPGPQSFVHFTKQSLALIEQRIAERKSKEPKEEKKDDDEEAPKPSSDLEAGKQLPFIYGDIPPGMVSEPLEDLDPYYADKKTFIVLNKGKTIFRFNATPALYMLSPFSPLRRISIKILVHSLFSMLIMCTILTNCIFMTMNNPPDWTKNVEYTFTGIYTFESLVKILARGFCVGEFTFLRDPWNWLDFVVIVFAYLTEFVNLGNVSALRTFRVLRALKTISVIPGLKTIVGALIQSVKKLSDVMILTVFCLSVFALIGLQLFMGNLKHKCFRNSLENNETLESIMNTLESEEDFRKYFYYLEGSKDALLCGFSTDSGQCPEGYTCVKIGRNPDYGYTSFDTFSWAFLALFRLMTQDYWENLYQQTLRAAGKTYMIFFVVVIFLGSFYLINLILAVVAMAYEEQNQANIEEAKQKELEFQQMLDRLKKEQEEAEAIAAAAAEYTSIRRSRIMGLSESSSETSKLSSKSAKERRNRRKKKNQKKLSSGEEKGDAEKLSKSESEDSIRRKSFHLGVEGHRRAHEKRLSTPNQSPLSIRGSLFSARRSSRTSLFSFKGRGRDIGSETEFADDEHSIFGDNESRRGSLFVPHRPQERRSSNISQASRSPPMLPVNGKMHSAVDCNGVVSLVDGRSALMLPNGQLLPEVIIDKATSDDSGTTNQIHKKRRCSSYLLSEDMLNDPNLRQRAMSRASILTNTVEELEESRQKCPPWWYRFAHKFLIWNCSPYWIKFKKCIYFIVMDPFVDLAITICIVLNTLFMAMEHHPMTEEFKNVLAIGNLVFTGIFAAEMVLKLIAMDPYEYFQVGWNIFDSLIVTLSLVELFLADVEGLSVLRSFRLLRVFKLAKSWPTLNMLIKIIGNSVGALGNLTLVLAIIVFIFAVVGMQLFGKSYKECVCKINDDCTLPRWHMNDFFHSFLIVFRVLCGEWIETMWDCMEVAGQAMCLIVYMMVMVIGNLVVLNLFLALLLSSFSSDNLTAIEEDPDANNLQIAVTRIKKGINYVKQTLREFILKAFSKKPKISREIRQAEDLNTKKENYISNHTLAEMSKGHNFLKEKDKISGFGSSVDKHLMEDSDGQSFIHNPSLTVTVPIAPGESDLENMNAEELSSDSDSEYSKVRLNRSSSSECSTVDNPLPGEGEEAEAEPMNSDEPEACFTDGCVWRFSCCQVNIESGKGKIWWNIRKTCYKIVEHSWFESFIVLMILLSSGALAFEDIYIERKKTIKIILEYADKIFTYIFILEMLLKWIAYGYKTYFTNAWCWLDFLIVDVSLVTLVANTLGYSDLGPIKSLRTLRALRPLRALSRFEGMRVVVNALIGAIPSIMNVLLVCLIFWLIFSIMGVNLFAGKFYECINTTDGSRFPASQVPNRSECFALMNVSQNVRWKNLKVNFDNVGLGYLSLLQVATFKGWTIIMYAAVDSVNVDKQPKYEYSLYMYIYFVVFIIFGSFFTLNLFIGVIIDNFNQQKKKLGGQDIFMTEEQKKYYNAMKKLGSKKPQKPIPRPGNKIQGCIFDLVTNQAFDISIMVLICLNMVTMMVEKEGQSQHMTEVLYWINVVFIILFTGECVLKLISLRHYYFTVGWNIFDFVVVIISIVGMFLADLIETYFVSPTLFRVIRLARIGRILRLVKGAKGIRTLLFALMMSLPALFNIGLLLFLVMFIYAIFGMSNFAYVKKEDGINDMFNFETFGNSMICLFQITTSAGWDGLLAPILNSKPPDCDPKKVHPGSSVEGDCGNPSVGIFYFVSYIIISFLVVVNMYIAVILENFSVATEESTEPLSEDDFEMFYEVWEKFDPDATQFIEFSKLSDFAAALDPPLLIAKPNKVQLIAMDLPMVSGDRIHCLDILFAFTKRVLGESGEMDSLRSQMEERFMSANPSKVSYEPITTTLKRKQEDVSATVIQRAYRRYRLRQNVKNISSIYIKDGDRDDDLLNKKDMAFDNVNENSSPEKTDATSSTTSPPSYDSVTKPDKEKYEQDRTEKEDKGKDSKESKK
Chain of hNav 1.7 (Q07699 19-218 partner): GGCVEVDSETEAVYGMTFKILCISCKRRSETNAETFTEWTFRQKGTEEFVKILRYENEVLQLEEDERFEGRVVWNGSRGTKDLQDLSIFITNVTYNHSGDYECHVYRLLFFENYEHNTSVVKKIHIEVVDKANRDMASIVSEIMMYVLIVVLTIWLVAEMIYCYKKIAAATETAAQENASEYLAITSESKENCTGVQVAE
Chain of hNav 1.7 (O60939 30-215 partner): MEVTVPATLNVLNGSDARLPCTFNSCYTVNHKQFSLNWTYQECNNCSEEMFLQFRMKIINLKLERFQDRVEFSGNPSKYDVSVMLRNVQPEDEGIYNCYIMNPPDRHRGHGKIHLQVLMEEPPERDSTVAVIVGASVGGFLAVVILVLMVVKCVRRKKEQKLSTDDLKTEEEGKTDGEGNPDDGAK

Q: Which results are given for `Cn1nccc1[C@H]1CC(F)(F)CC[C@@H]1Oc1cc(F)c(S(=O)(=O)Nc2ccncn2)cc1F` (relative stereo) [Example 88, 4-{[(1S*,2R*)-4,4-Difluoro-2-(1-methyl-1H-pyrazol-5-yl)cyclohexyl]oxy}-2,5-difluoro-N-(pyrimidin-4-yl)benzenesulfonamide]?
A: IC50 (hNav 1.7): 0.32 µM; Ratio of improving pain score (%) [1]: C (“C” when the rate was 0 to 30%)

Q: With `Cc1cc(S(=O)(=O)Nc2ccncn2)c(F)cc1O[C@H]1CC(F)(F)CC[C@@H]1c1ccnn1C` (relative stereo) [Example 90, 4-{[(1S*,2R*)-5,5-Difluoro-2-(1-methyl-1H-pyrazol-5-yl)cyclohexyl]oxy}-2-fluoro-5-methyl-N-(pyrimidin-4-yl)benzenesulfonamide] as the compound, how does the IC50 (hNav 1.7) read?
A: 0.089 µM

Q: And the “Ratio of improving pain score (%)” value [1]?
A: B (“B” when the rate was 31 to 60%)

Q: What does the source list for `Nc1n[nH]cc1[C@H]1CCCC[C@@H]1Oc1ccc(S(=O)(=O)Nc2ccncn2)c(F)c1Cl` (relative stereo) [Example 91, 4-{[(1S*,2R*)-2-(3-Amino-1H-pyrazol-4-yl)cyclohexyl]oxy}-3-chloro-2-fluoro-N-(pyrimidin-4-yl)benzenesulfonamide]?
A: IC50 (hNav 1.7): 0.17 µM; Ratio of improving pain score (%) [1]: A (“A” when the rate was 61 to 100%)

Q: What does the source list for `Cn1nccc1[C@H]1CC(C)(C)C[C@@H]1Oc1cc(F)c(S(=O)(=O)Nc2ccncn2)cc1F` (relative stereo) [Example 93, 4-{[(1S*,2R*)-4,4-Dimethyl-2-(1-methyl-1H-pyrazol-5-yl)cyclopentyl]oxy}-2,5-difluoro-N-(pyrimidin-4-yl)benzenesulfonamide]?
A: IC50 (hNav 1.7): 0.065 µM; Ratio of improving pain score (%) [1]: B (“B” when the rate was 31 to 60%)

Q: How did the IC50 (hNav 1.7) turn out when `O=S(=O)(Nc1ccncn1)c1c(F)cc(O[C@H]2CCCC[C@@H]2c2cn[nH]c2)cc1F` (relative stereo) [Example 94, 2,6-Difluoro-4-{[(1S*,2R*)-2-(1H-pyrazol-4-yl)cyclohexyl]oxy}-N-(pyrimidin-4-yl)benzenesulfonamide] was run?
A: 0.12 µM

Q: What about the “Ratio of improving pain score (%)” value [1] of the same compound?
A: A (“A” when the rate was 61 to 100%)

Q: With `[2H]c1nccc(NS(=O)(=O)c2ccc(O[C@H]3CCC[C@@H]3c3ccnn3CC)c(F)c2F)n1` (relative stereo) [Example 95, 4-{[(1S*,2R*)-2-(1-Ethyl-1H-pyrazol-5-yl)cyclopentyl]oxy}-2,3-difluoro-N-(2-^2H) (pyrimidin-4-yl)benzenesulfonamide] as the compound, how does the IC50 (hNav 1.7) read?
A: 0.17 µM

Q: What about the “Ratio of improving pain score (%)” value [1] of the same compound?
A: C (“C” when the rate was 0 to 30%)

Q: For `CC(=O)Nc1n[nH]cc1[C@H]1CCCC[C@@H]1Oc1cc(F)c(S(=O)(=O)Nc2ccncn2)cc1C` (relative stereo) [Example 96, N-(4-{(1R*,2S*)-2-[5-fluoro-2-methyl-4-((pyrimidin-4-yl)sulfamoyl)phenoxy]cyclohexyl}-1H-pyrazol-3-yl)acetamide], which IC50 (hNav 1.7) is on record?
A: 0.25 µM

Q: What about the “Ratio of improving pain score (%)” value [1] of the same compound?
A: A (“A” when the rate was 61 to 100%)

Q: Which results are given for `Cn1nccc1[C@H]1C[C@@H](OCc2ccccc2)C[C@@H]1Oc1cc(F)c(S(=O)(=O)Nc2ccncn2)cc1F` (relative stereo) [Example 97, 4-{[(1S*,2R*,4R*)-4-(Benzyloxy)-2-(1-methyl-1H-pyrazol-5-yl)cyclopentyl]oxy}-2,5-difluoro-N-(pyrimidin-4-yl)benzenesulfonamide]?
A: IC50 (hNav 1.7): 0.034 µM; Ratio of improving pain score (%) [1]: C (“C” when the rate was 0 to 30%)

Q: Which results are given for `Cn1nccc1[C@H]1C[C@H](OCc2ccccc2)C[C@@H]1Oc1cc(F)c(S(=O)(=O)Nc2ccncn2)cc1F` (relative stereo) [Example 98, 4-{[(1S*,2R*,4S*)-4-(Benzyloxy)-2-(1-methyl-1H-pyrazol-5-yl)cyclopentyl]oxy}-2,5-difluoro-N-(pyrimidin-4-yl)benzenesulfonamide]?
A: IC50 (hNav 1.7): 0.046 µM; Ratio of improving pain score (%) [1]: C (“C” when the rate was 0 to 30%)

Q: `Cc1cc(S(=O)(=O)Nc2ccncn2)c(F)cc1O[C@H]1CCC[C@@H]1c1cn[nH]c1` (relative stereo) [Example 101, 2-Fluoro-5-methyl-4-{[(1S*,2R*)-2-(1H-pyrazol-4-yl)cyclopentyl]oxy}-N-(pyrimidin-4-yl)benzenesulfonamide] was tested. Which IC50 (hNav 1.7) did it give?
A: 0.18 µM

Q: What about the “Ratio of improving pain score (%)” value [1] of the same compound?
A: B (“B” when the rate was 31 to 60%)

Q: For `O=S(=O)(Nc1ccncn1)c1cc(F)c(O[C@H]2CC(F)(F)CC[C@@H]2c2cn[nH]c2)cc1F` (relative stereo) [Example 103, 4-{[(1S*,2R*)-5,5-Difluoro-2-(1H-pyrazol-4-yl)cyclohexyl]oxy}-2,5-difluoro-N-(pyrimidin-4-yl)benzenesulfonamide], which IC50 (hNav 1.7) is on record?
A: 0.32 µM

Q: And the “Ratio of improving pain score (%)” value [1]?
A: B (“B” when the rate was 31 to 60%)

Q: Which results are given for `O=S(=O)(Nc1ccncn1)c1c(F)cc(O[C@H]2CC(F)(F)CC[C@@H]2c2cn[nH]c2)cc1F` (relative stereo) [Example 104, 4-{[(1S*,2R*)-5,5-Difluoro-2-(1H-pyrazol-4-yl)cyclohexyl]oxy}-2,6-difluoro-N-(pyrimidin-4-yl)benzenesulfonamide]?
A: IC50 (hNav 1.7): 0.071 µM; Ratio of improving pain score (%) [1]: B (“B” when the rate was 31 to 60%)

Q: With `Cn1nccc1[C@H]1CCC(F)(F)C[C@@H]1Oc1ccc(S(=O)(=O)Nc2ccncn2)c(F)c1F` (relative stereo) [Example 105, 4-{[(1S*,2R*)-5,5-Difluoro-2-(1-methyl-1H-pyrazol-5-yl)cyclohexyl]oxy}-2,3-difluoro-N-(pyrimidin-4-yl)benzenesulfonamide] as the compound, how does the IC50 (hNav 1.7) read?
A: 0.22 µM

Q: And the “Ratio of improving pain score (%)” value [1]?
A: A (“A” when the rate was 61 to 100%)

Q: For `Cn1nccc1[C@H]1CC(F)(F)C[C@@H]1Oc1cc(F)c(S(=O)(=O)Nc2ccncn2)cc1F` (relative stereo) [Example 107, 4-{[(1S*,2R*)-4,4-Difluoro-2-(1-methyl-1H-pyrazol-5-yl)cyclopentyl]oxy}-2,5-difluoro-N-(pyrimidin-4-yl)benzenesulfonamide], which IC50 (hNav 1.7) is on record?
A: 0.042 µM

Q: And the “Ratio of improving pain score (%)” value [1]?
A: B (“B” when the rate was 31 to 60%)

Q: How did the IC50 (hNav 1.7) turn out when `O=S(=O)(Nc1ccncn1)c1ccc(O[C@H]2CCCC[C@@H]2c2cn[nH]c2)cc1F` (relative stereo) [Example 108, 2-Fluoro-4-{[(1S*,2R*)-2-(1H-pyrazol-4-yl)cyclohexyl]oxy}-N-(pyrimidin-4-yl)benzenesulfonamide] was run?
A: 1.7 µM

Q: What about the “Ratio of improving pain score (%)” value [1] of the same compound?
A: A (“A” when the rate was 61 to 100%)

Q: For `Cn1nccc1[C@H]1CCC(F)(F)C[C@@H]1Oc1cc(F)c(S(=O)(=O)Nc2ccncn2)c(F)c1` (relative stereo) [Example 109, 4-{[(1S*,2R*)-5,5-Difluoro-2-(1-methyl-1H-pyrazol-5-yl)cyclohexyl]oxy}-2,6-difluoro-N-(pyrimidin-4-yl)benzenesulfonamide], which IC50 (hNav 1.7) is on record?
A: 0.05 µM

Q: What about the “Ratio of improving pain score (%)” value [1] of the same compound?
A: B (“B” when the rate was 31 to 60%)

Q: Which results are given for `Cn1nccc1[C@H]1CCC(F)(F)C[C@@H]1Oc1ccc(S(=O)(=O)Nc2ccncn2)c(F)c1` (relative stereo) [Example 110, 4-{[(1S*,2R*)-5,5-Difluoro-2-(1-methyl-1H-pyrazol-5-yl)cyclohexyl]oxy}-2-fluoro-N-(pyrimidin-4-yl)benzenesulfonamide]?
A: IC50 (hNav 1.7): 0.3 µM; Ratio of improving pain score (%) [1]: B (“B” when the rate was 31 to 60%)

Q: For `Cn1nccc1[C@H]1CCC[C@@H]1Oc1cc(F)c(S(=O)(=O)Nc2ccnc(F)n2)c(F)c1` (relative stereo) [Example 111, 2,6-Difluoro-N-(2-fluoropyrimidin-4-yl)-4-{[(1S*,2R*)-2-(1-methyl-1H-pyrazol-5-yl)cyclopentyl]oxy}benzenesulfonamide], which IC50 (hNav 1.7) is on record?
A: 0.03 µM

Q: What about the “Ratio of improving pain score (%)” value [1] of the same compound?
A: A (“A” when the rate was 61 to 100%)

Q: `Cn1nccc1[C@H]1CCC[C@@H]1Oc1ccc(S(=O)(=O)Nc2ccnc(F)n2)c(F)c1` (relative stereo) [Example 114, 2-Fluoro-N-(2-fluoropyrimidin-4-yl)-4-{[(1S*,2R*)-2-(1-methyl-1H-pyrazol-5-yl)cyclopentyl]oxy}benzenesulfonamide] was tested. Which IC50 (hNav 1.7) did it give?
A: 0.078 µM

Q: And the “Ratio of improving pain score (%)” value [1]?
A: B (“B” when the rate was 31 to 60%)

Q: What does the source list for `CCn1nccc1[C@H]1CCC[C@@H]1Oc1ccc(S(=O)(=O)Nc2ccncn2)c(F)c1` (relative stereo) [Example 115, 4-{[(1S*,2R*)-2-(1-Ethyl-1H-pyrazol-5-yl)cyclopentyl]oxy}-2-fluoro-N-(pyrimidin-4-yl)benzenesulfonamide]?
A: IC50 (hNav 1.7): 0.58 µM; Ratio of improving pain score (%) [1]: A (“A” when the rate was 61 to 100%)

Q: How did the IC50 (hNav 1.7) turn out when `Nc1n[nH]cc1[C@H]1CCCC[C@@H]1Oc1cc(F)c(S(=O)(=O)Nc2cscn2)c(F)c1` (relative stereo) [Example 116, 4-{[(1S*,2R*)-2-(3-Amino-1H-pyrazol-4-yl)cyclohexyl]oxy}-2,6-difluoro-N-(1,3-thiazol-4-yl)benzenesulfonamide] was run?
A: 0.17 µM

Q: What about the “Ratio of improving pain score (%)” value [1] of the same compound?
A: B (“B” when the rate was 31 to 60%)

Q: What does the source list for `CO[C@@H]1C[C@H](Oc2cc(F)c(S(=O)(=O)Nc3ccncn3)cc2F)[C@@H](c2ccnn2C)C1` (relative stereo) [Example 120, 2,5-Difluoro-4-{[(1S*,2R*,4S*)-4-methoxy-2-(1-methyl-1H-pyrazol-5-yl)cyclopentyl]oxy}-N-(pyrimidin-4-yl)benzenesulfonamide]?
A: IC50 (hNav 1.7): 0.27 µM; Ratio of improving pain score (%) [1]: C (“C” when the rate was 0 to 30%)

Q: Which IC50 (hNav 1.7) does the source give for `Cc1cc(S(=O)(=O)Nc2nncs2)c(F)cc1O[C@H]1CC(F)(F)CC[C@@H]1c1ccnn1C` (relative stereo) [Example 125, 4-{[(1S*,2R*)-5,5-Difluoro-2-(1-methyl-1H-pyrazol-5-yl)cyclohexyl]oxy}-2-fluoro-5-methyl-N-(1,3,4-thiadiazol-2-yl)benzenesulfonamide] here?
A: 0.2 µM

Q: What about the “Ratio of improving pain score (%)” value [1] of the same compound?
A: C (“C” when the rate was 0 to 30%)

Q: `Cc1cc(S(=O)(=O)Nc2ccncn2)c(F)cc1O[C@H]1CCC(F)(F)C[C@@H]1c1ccnn1C` (relative stereo) [Example 126, 4-{[(1S*,2R*)-4,4-Difluoro-2-(1-methyl-1H-pyrazol-5-yl)cyclohexyl]oxy}-2-fluoro-5-methyl-N-(pyrimidin-4-yl)benzenesulfonamide] was tested. Which IC50 (hNav 1.7) did it give?
A: 0.014 µM

Q: And the “Ratio of improving pain score (%)” value [1]?
A: C (“C” when the rate was 0 to 30%)
